The results in this text go back to patent US20040237130A1, “Embryogenic culture initiation of douglas-fir by maltose” (Weyerhaeuser Company, priority 2003, published 2004).

For one test, the system named is Douglas-fir explants. As to the kind of experiment: Initiation of embryonal suspensor masses (ESM) from Douglas-fir explants on BM1 initiation medium. It counts as cell-based. The note with it: for Initiation (#) / Initiation (%): sugar 15000 mg/L in semi-solid BM1 initiation medium, 5-6 weeks, dark. On the procedure:
Cones were collected from four mother tree crosses (full-sib families) at a time when the embryos were in the pre-dome and dome stage of development. Cones were transferred on blue ice and stored in plastic bags in a cold room at 0-4° C. until needed for dissections. Seeds were removed from cones and dissected on the same day. After the seeds were removed, they were placed into a beaker containing pre-sterilized water. Seeds were divided into aliquots of 60-80 seeds. Each aliquot was placed into a separate pre-sterilized tea strainer before undergoing the following procedure. First, seeds were agitated in 10% Liqui-nox (+2 droppers full Tween-20 per liter) for 10 minutes. After rinsing the seeds in deionized water (18 megaohms) for 30 minutes, the tea strainers were exposed to 20% (v/v) H2O2 for 10 minutes in a fume hood on a rotary shaker (175 rpm). The H2O2 was diluted just before use with sterile, deionized water. Following application of the H2O2, each strainer was placed into a separate beaker of sterile deionized water, covered with foil, and moved into the laminar flow hood. All subsequent steps were carried out in the laminar flow hood. Each tea strainer was rinsed by agitating 4-8 times in each of 5 separate portions of sterile deionized water. The contents of each tea strainer were then dumped into a large petri dish containing a sterile filter paper and a few millimeters of sterile water (to help keep seeds from drying). Seeds were placed into 60×15 mm sterile petri plates containing 0.2 ml sterile deionized water each. Those seeds not dissected after sterilization were thrown out at the end of the day. Dissections were done in clean laminar flow hoods. Clean gloves were worn throughout the preparatory steps and dissection. Sterile forceps and scalpels were used to carefully split the seed, remove the female gametophyte and nucellus, and to split the female gametophyte. The embryo suspensor was pulled out, but kept attached to (or touching) the female gametophyte. Embryo and gametophyte were placed unto initiation medium BM1 so that the embryo was visible through the petri dish lid. Initiation: Half of the embryos and gametophytes (Group 1) from each cross were placed on a semi-solid BM1 initiation medium (Table 2), the other half (Group 2) were placed on semi-solid BM1 initiation medium in which the maltose was replaced with sucrose (15000 mg/L). The explants were held in an environment at 22°-25 C with a 24 hour dark photoperiod for a time of 5-6 weeks. The length of time depends on the particular genotype being cultured. Embryonal suspensor masses (ESM) (White, translucent, and mucilaginous) were observed beginning 2-3 weeks after inoculation. […] Initiation is defined as growth of an embryonal suspensor mass from an explant. Overall, the percentage of ESMs initiated from explants was 27% for Group A and 18% for Group B. Initiation improved for each of the 4 crosses tested when explants were cultured on initiation medium containing maltose (Group A). Overall, the number of explants initiated increased by 51% for explants cultured on initiation medium containing maltose, compared to explants cultured on initiation medium containing sucrose.

Test [1] concerns Douglas-fir embryonal suspensor masses. Kind of test: Establishment of embryonal suspensor masses on BM2 maintenance medium. The test is classed as cell-based. The note with it: for Initiation (#) (Establishment Frequencies) / Initiation (%) (Establishment Frequencies) / Initiation (%) (Establishment Frequencies); proportion of established ESMs: sugar 30000 mg/L in solid BM2 maintenance medium, 12-15 subcultures. The procedure:
Maintenance: After 5-6 weeks, ESMs from Group A were subcultured onto a solid BM2 maintenance medium (Table 2), and ESMs from Group B were subcultured unto a BM2 maintenance medium in which the maltose was replaced with sucrose (30000 mg/L). The maintenance medium differs from the initiation medium in that the growth hormones (both auxins and cytokinins) are reduced by at least a full order of magnitude. Osmolality of this medium was typically raised from that of the initiation medium to about 180 mM/kg or higher (typically within the range of about 180-400 mM/kg) by increasing the concentration of myo-inositol to 0.5% w/v. The temperature and photoperiod were again 22°-25 C. with 24 hours in the dark. ESMs were subcultured every 12 days onto fresh maintenance medium. The number of ESMs established from explants for each group after a total of 12-15 subcultures on maintenance is shown in Table 4. An ESM was considered to be established if it weighed between 250 mg and 500 mg (fresh weight) or if measured 1-2 cms in diameter, after several subcultures. The proportion of established ESMs obtained was 18% for explants in Group A and 11% for explants in Group B. The frequencies of established ESMs improved for each of the 4 crosses tested when explants were cultured on maintenance medium containing maltose (Group A). Overall, the number of established ESMs increased by 51% for explants cultured on maintenance medium containing maltose, compared to explants cultured on maintenance medium containing sucrose.

Regarding `OC[C@H]1O[C@@](CO)(O[C@H]2O[C@H](CO)[C@@H](O)[C@H](O)[C@H]2O)[C@@H](O)[C@@H]1O` [Group B, sucrose, reference compound], the “Initiation (#)” value in the test with Douglas-fir explants (Cross 1) was 42 #; in the test on Douglas-fir explants (Cross 2), 20 #; in the test with Douglas-fir explants (Cross 3), 14 #; in the test with Douglas-fir explants (Cross 4), 8 #; in the test on Douglas-fir explants (Total of 4 crosses), 84 #. For the same compound, the “Initiation (%)” value is listed as 30% in the test on Douglas-fir explants (Cross 1); 19% in the test with Douglas-fir explants (Cross 2); 13% in the test with Douglas-fir explants (Cross 3); 7% with Douglas-fir explants (Cross 4); 18% with Douglas-fir explants (Total of 4 crosses (overall)). Further, the “Initiation (#) (Establishment Frequencies)” value in test [1] (Cross 1) is 20 #; in test [1] (Cross 2), 6 #; in test [1] (Cross 3) it was 12 #; in test [1] (Cross 4), 13 #; in test [1] (Total of 4 crosses), 51 #. In addition, the “Initiation (%) (Establishment Frequencies)” value is recorded as 14% in test [1] (Cross 1), 6% in test [1] (Cross 2), 11% in test [1] (Cross 3) and 12% in test [1] (Cross 4). In addition, the “Initiation (%) (Establishment Frequencies); proportion of established ESMs” value in test [1] (Total of 4 crosses) came out at 11%.

As for `OC[C@H]1O[C@H](O[C@H]2[C@H](O)[C@@H](O)C(O)O[C@@H]2CO)[C@H](O)[C@@H](O)[C@@H]1O` (mixture of isomers) [Group A, maltose], the “Initiation (#)” value in the test with Douglas-fir explants (Cross 1) is 63 #; with Douglas-fir explants (Cross 2) it was 30 #; with Douglas-fir explants (Cross 3), 21 #; in the test on Douglas-fir explants (Cross 4), 13 #; in the test on Douglas-fir explants (Total of 4 crosses) it was 127 #. For the same compound, the “Initiation (%)” value in the test with Douglas-fir explants (Cross 1) was 46%; in the test with Douglas-fir explants (Cross 2), 28%; in the test with Douglas-fir explants (Cross 3), 19%; with Douglas-fir explants (Cross 4) it was 12%; with Douglas-fir explants (Total of 4 crosses (overall)), 27%. The “Initiation for each of the 4 crosses tested, compared with sucrose medium” value in the test with Douglas-fir explants (each of 4 crosses) was “improved”. Moreover, the “increase in number of explants initiated compared to initiation medium containing sucrose” value in the test on Douglas-fir explants (overall, 4 crosses) stood at 51%. Also, the “Initiation (#) (Establishment Frequencies)” value was 36 # in test [1] (Cross 1); 11 # in test [1] (Cross 2); 20 # in test [1] (Cross 3); 17 # in test [1] (Cross 4); 84 # in test [1] (Total of 4 crosses). The “Initiation (%) (Establishment Frequencies)” value is reported as 26% in test [1] (Cross 1), 10% in test [1] (Cross 2), 18% in test [1] (Cross 3) and 15% in test [1] (Cross 4). Also, in test [1] (Total of 4 crosses), the “Initiation (%) (Establishment Frequencies); proportion of established ESMs” value was found to be 18%. Besides, in test [1] (each of 4 crosses), the “frequencies of established ESMs for each of the 4 crosses tested, compared with sucrose medium” value was “improved”. Moreover, the “increase in number of established ESMs compared to maintenance medium containing sucrose” value in test [1] (overall, 4 crosses) came out at 51%.
